Measured values as given in US10767186B2, “Organic compounds” (Novartis AG, priority 2007, dated 2020).
pKd, pKi: −log10 of the molar value.

How the values were obtained:
[1] = molecular target: FRα (FR alpha) and FRβ (FR beta); settings: cited from earlier work; for pKd: FRα and FRβ
[2] = molecular target: T1, reduced folate carrier (RFC) (Homo sapiens, UniProt P41440); settings: cited from earlier work
T1 sequence (P41440 1-591): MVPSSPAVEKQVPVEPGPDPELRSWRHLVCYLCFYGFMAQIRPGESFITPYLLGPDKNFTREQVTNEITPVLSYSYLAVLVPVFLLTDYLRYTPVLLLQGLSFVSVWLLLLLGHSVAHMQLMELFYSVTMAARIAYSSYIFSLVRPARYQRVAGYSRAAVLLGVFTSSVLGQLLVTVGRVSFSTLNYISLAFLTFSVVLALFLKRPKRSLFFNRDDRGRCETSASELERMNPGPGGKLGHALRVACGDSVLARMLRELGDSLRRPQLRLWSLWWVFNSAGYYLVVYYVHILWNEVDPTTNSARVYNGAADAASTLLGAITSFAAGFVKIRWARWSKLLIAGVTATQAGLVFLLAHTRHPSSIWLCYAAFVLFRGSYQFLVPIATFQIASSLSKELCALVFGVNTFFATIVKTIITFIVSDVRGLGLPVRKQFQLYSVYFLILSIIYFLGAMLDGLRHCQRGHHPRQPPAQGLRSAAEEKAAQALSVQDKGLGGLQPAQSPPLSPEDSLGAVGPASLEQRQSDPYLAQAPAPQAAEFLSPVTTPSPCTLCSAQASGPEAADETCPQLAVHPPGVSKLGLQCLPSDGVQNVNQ

RFC-deficient C15 cells = assay: Antibody production of test vector clones at low folic acid (ELISA); format: cell-based, Chinese hamster
Procedure: The cells are lacking RFC transporter activity, as disclosed elsewhere (Assaraf, Y. G. and Schimke, R. T. (1987) Proc. Natl. Acad. Sci. USA 84, 7154-7158; Rothem, L., et al., Mol. Pharmacol. 68: 616-624).
RFC-deficient C15 cells are transfected with the test vector by electroporation. […] Cells are diluted to a final density of 5 cells/ml and seeded at 100 μl/well in 96-well plates (i.e. 0.5 cells/well). […] The co-selection utilizing the folate system of the present invention together with an additional selection system (i.e. neo/G418) is applied to provide optimal performance of the selection process. […] This is corroborated by further analysis of antibody expression in the various clones.
The analysis of antibody production is performed in principle as outlined in Example 1.4 above. The concentration of the secreted antibody is monitored using an ELISA assay as follows: Maxisorp microplates are coated with an anti-human IgG. Following blocking with a buffer containing bovine serum albumin (BSA) and several washes, multiple dilutions of the secreted antibody samples are added. Then, a peroxidase-conjugated second antibody consisting of goat anti-human IgG-peroxidase is added. Finally, a colorimetric peroxidase substrate is added following which the resultant dye concentration is determined in each well spectrophotometrically and then compared to standard concentrations of known IgG concentrations.

CHO-K1 cell line = assay: Folic acid starvation experiment, cell survival; format: cell-based, Chinese hamster
Procedure: Cells are cultivated in such medium and cell viability is analyzed to quantify the percentage of surviving cells.

For `CN(Cc1cnc2nc(N)nc(N)c2n1)c1ccc(C(=O)N[C@@H](CCC(=O)O)C(=O)O)cc1` [MTX, 4-amino-10-methylfolic acid], the pKd [1] is given as under 7.00.

For `Nc1nc2c(c(=O)[nH]1)CC(CCc1ccc(C(=O)N[C@@H](CCC(=O)O)C(=O)O)cc1)CN2` (some centres unmarked) [DDATHF, 5,10-dideazatetrahydrofolic acid], the pKi ([1]; using [3H]folic acid as a substrate) is listed as 8.89 to 9.40.

In the case of `Nc1nc2ncc(CNc3ccc(C(=O)N[C@@H](CCC(=O)O)C(=O)O)cc3)nc2c(=O)[nH]1` [folic acid], the “Kt (transport affinity)” value [2] is listed as 200 to 400 µM, the “CmAb: concentration of the secreted antibody in the medium” value (“CmAb: concentration” below) (RFC-deficient C15 cells; folic acid 60 pM in the medium) is listed as 216 ± 30 µg/L and the “CmAb: concentration” value (RFC-deficient C15 cells; folic acid 600 pM in the medium) is listed as 138 ± 15 µg/L. For the same molecule, the “CmAb: concentration” value (RFC-deficient C15 cells; folic acid 1200 pM in the medium) was 19 ± 8 µg/L, the “Precentage of Survival” value (CHO-K1 cell line; FA concentration 0.1 nM) was 2.08 and the “Precentage of Survival” value (CHO-K1 cell line; FA concentration 1 nM) was 2.45. The “Precentage of Survival” value (CHO-K1 cell line; FA concentration 3 nM) was 2, the “Precentage of Survival” value (CHO-K1 cell line; FA concentration 10 nM) was 2.7 and the “Precentage of Survival” value (CHO-K1 cell line; FA concentration 30 nM) was 6.8. For the same molecule, the “Precentage of Survival” value (CHO-K1 cell line; FA concentration 100 nM) was 55.5, the “Precentage of Survival” value (CHO-K1 cell line; FA concentration 300 nM) was 88.6 and the “Precentage of Survival” value (CHO-K1 cell line; FA concentration 1000 nM) was 100.8. For the same molecule, the “Precentage of Survival” value (CHO-K1 cell line; FA concentration 2300 nM) was 100.

In the case of `Nc1nc2c(c(=O)[nH]1)N(C=O)C(CNc1ccc(C(=O)N[C@@H](CCC(=O)O)C(=O)O)cc1)CN2` (some centres unmarked) [leucovorin, 5-formyl-THF], the “Kt (transport affinity)” value [2] is given as 1 µM.

For `C#CCN(c1ccc(C(=O)N[C@@H](CCC(=O)N[C@H](CCC(=O)O)C(=O)O)C(=O)O)cc1)[C@H]1CCc2cc3nc(CO)[nH]c(=O)c3cc21` [BGC945], the pKd [1] is listed as 9.00.
